Results from patent US20210330611A1, “THERAPY FOR NEUROLOGICAL DISEASES/DISORDERS” (priority 2020, published 2021).
Structures can show the parent of a compound that is named as a salt. Where two headings read alike, the source gives them in different places.

Tests used:
primary rat microglia [1] = tested on: primary rat microglia;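 as to Fibrin % cell toxicity: share of dead cells sized under 150 µm2 at 10 µM in fibrin-stimulated microglia HTS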
[2] = tested on: LPS-induced microglia activation; assay: Image-based assay of LPS-induced microglia activation (HTS and dose response); type: cell-based, rat
primary rat microglia [3] = tested on: primary rat microglia; remark: listed apart in the source;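 as to Fibrin % cell toxicity: share of dead cells sized under 150 µm2 at 10 µM in fibrin-stimulated microglia HTS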
[4] = tested on: fibrin-induced microglia activation; assay: Image-based assay of fibrin-induced microglia activation (HTS and dose response); type: cell-based, rat; conditions: for inhibition at 10 µM: Rattus norvegicus, Microglia, read-out: Fibrin % inhibition
[5] = tested on: fibrin- and LPS-induced microglia activation; assay: cells; type: cell-based, rat
[6] = Rattus norvegicus, Microglia, primary microglia HTS, 10 μM, LPS-stimulated, cell size >800 μm^2 as marker of activation; read-out: LPS % inhibition
[7] = primary microglia HTS, 10 μM, fibrin-stimulated, cell size >800 μm^2 as marker of activation
[8] = HTS of 1907 compounds, quadrant by fibrin and LPS inhibition
[9] = quadrant by fibrin and LPS inhibition, HTS at 10 μM
[10] = Rattus norvegicus, Microglia, 48 h, read-out: LPS % inhibition
[11] = primary HTS, 10 μM, fibrin-stimulated primary microglia
[12] = Rattus norvegicus, Microglia, primary microglia HTS, LPS stimulation, compounds at 10 μM; read-out: LPS % inhibition
[13] = primary microglia HTS, fibrin stimulation, compounds at 10 μM
[14] = Rattus norvegicus, Microglia, read-out: LPS % inhibition
[15] = primary microglia HTS, fibrin stimulation, cell size >800 μm2 as marker of activation
[16] = classification by fibrin and LPS inhibition in HTS

CN1CCN(CC/C=C2/c3ccccc3Sc3ccc(S(=O)(=O)N(C)C)cc32)CC1 [Thiothixene]
LPS % cell toxicity (primary rat microglia [1]; rat): 0% | inhibition at 10 µM [2, 6]: 37% | Fibrin % cell toxicity (primary rat microglia [3]; rat): 0% | inhibition at 10 µM [4, 7]: -4% | Quadrant (FIG. 5b) [5, 8]: Q4

CC[C@]1(O)C[C@H]2CN(CCc3c([nH]c4ccccc34)[C@@](C(=O)OC)(c3cc4c(cc3OC)N(C=O)[C@H]3[C@@](O)(C(=O)OC)[C@H](OC(C)=O)[C@]5(CC)C=CCN6CC[C@]43[C@@H]65)C2)C1 [Vincristine Sulfate]
LPS % cell toxicity (primary rat microglia [1]; rat): 7% | LPS % inhibition ([2]; primary microglia HTS, LPS stimulation, compounds at 10 μM; 10 µM): 119% | Fibrin % cell toxicity (primary rat microglia [3]; rat): 16% | Fibrin % inhibition ([4]; primary microglia HTS, fibrin stimulation, compounds at 10 μM, 10 µM): 108% | Quadrant (FIG. 5b) [5, 9]: Q2

Modaline Sulfate
LPS % cell toxicity (primary rat microglia [1]): 0% | LPS % inhibition [2]: 25% | Fibrin % cell toxicity (primary rat microglia [3]): 1% | Fibrin % inhibition [4]: −9% | Quadrant (FIG. 5b) [5]: Q4

COc1ccc(CC(C)NCC(O)c2ccc(O)c(NC=O)c2)cc1 (centres unmarked) [Formoterol]
LPS % cell toxicity (primary rat microglia [1]; rat): 1% | inhibition at 10 µM [2, 10]: 32% | Fibrin % cell toxicity (primary rat microglia [3]; rat): 1% | inhibition at 10 µM [4]: -6% | Quadrant (FIG. 5b) [5]: Q4

CCC(=O)OCC(=O)[C@@]1(OC(=O)CC)[C@@H](C)C[C@H]2[C@@H]3CCC4=CC(=O)C=C[C@]4(C)[C@@]3(F)[C@@H](O)C[C@@]21C [Betamethasone 17,21-dipropionate]
LPS % cell toxicity (primary rat microglia [1]): 0% | LPS % inhibition ([2]; primary HTS, 10 μM, LPS-stimulated primary microglia): 29% | Fibrin % cell toxicity (primary rat microglia [3]): 1% | Fibrin % inhibition [4, 11]: 21% | Quadrant (FIG. 5b) ([5]; primary HTS, 10 μM): Q4

COc1ccc2c(c1)c(CC(=O)O)c(C)n2C(=O)c1ccc(Cl)cc1 [Indomethacin]
LPS % cell toxicity (primary rat microglia [1]; rat): 0% | inhibition at 10 µM ([2]; Rattus norvegicus, Microglia, 48 h, primary microglia HTS, LPS stimulation, activation = cell size >800 μm2; read-out: LPS % inhibition): 13% | Fibrin % cell toxicity (primary rat microglia [3]; rat): 0% | inhibition at 10 µM ([4]; primary microglia HTS, fibrin stimulation, activation = cell size >800 μm2): -56% | Quadrant (FIG. 5b) ([5]; quadrant by fibrin and LPS inhibition in HTS of 1907 compounds): Q4

C=C1CC[C@H](O)C/C1=C/C=C1\CCC[C@]2(C)[C@@H]([C@H](C)/C=C/[C@H](C)C(C)C)CC[C@@H]12 [Ergocalciferol]
LPS % cell toxicity (primary rat microglia [1]; rat): 0% | inhibition at 10 µM [2, 12]: 7% | Fibrin % cell toxicity (primary rat microglia [3]; rat): 1% | inhibition at 10 µM [4, 13]: -6% | Quadrant (FIG. 5b) ([5]; classification by fibrin and LPS inhibition, HTS at 10 μM): Q4

CC[C@]1(O)C[C@H]2CN(CCc3c([nH]c4ccccc34)[C@@](C(=O)OC)(c3cc4c(cc3OC)N(C=O)[C@H]3[C@@](O)(C(=O)OC)[C@H](OC(C)=O)[C@]5(CC)C=CCN6CC[C@]43[C@@H]65)C2)C1 [Vincristine]
LPS % cell toxicity (primary rat microglia [1]; rat): 10% | inhibition at 10 µM [2, 12]: 104% | Fibrin % cell toxicity (primary rat microglia [3]; rat): 33% | inhibition at 10 µM [4, 13]: 105% | Quadrant (FIG. 5b) [5, 9]: Q2

Cc1c(Cl)cccc1Nc1ccccc1C(=O)O [Tolfenamic Acid]
LPS % cell toxicity (primary rat microglia [1]; rat): 1% | inhibition at 10 µM [2, 6]: 36% | Fibrin % cell toxicity (primary rat microglia [3]; rat): 1% | inhibition at 10 µM [4, 7]: 3% | Quadrant (FIG. 5b) [5, 8]: Q4

Nc1cc(C(Cl)=C(Cl)Cl)c(S(N)(=O)=O)cc1S(N)(=O)=O [Clorsulon]
LPS % cell toxicity (primary rat microglia [1]; rat): 0% | inhibition at 10 µM [2, 14]: 17% | Fibrin % cell toxicity (primary rat microglia [3]; rat): 0% | inhibition at 10 µM [4]: 0% | Quadrant (FIG. 5b) [5]: Q4

CNC(=O)Oc1ccc2c(c1)[C@]1(C)CCN(C)[C@@H]1N2C [Physostigmine]
LPS % cell toxicity (primary rat microglia [1]; rat): 0% | inhibition at 10 µM ([2]; Rattus norvegicus, Microglia, 48 h; read-out: LPS % inhibition): 18% | Fibrin % cell toxicity (primary rat microglia [3]; rat): 0% | inhibition at 10 µM [4, 15]: -73% | Quadrant (FIG. 5b) [5, 16]: Q4

CCN(CC)CCOc1ccc(C(=C(Cl)c2ccccc2)c2ccccc2)cc1 [Clomiphene]
LPS % cell toxicity (primary rat microglia [1]; rat): 0% | inhibition at 10 µM [2, 14]: 7% | Fibrin % cell toxicity (primary rat microglia [3]; rat): 1% | inhibition at 10 µM [4]: 11% | Quadrant (FIG. 5b) [5]: Q4

CN(C)c1ccc2nc3ccc(=[N+](C)C)cc-3sc2c1 [Methylene Blue]
LPS % cell toxicity (primary rat microglia [1]; rat): 1% | inhibition at 10 µM [2, 10]: 73% | Fibrin % cell toxicity (primary rat microglia [3]; rat): 1% | inhibition at 10 µM [4]: 25% | Quadrant (FIG. 5b) [5]: Q1

NC(=O)[C@@H]1CCCN1C(=O)[C@H](Cc1cnc[nH]1)NC(=O)[C@@H]1CCC(=O)N1 [Protirelin]
LPS % cell toxicity (primary rat microglia [1]): 1% | LPS % inhibition [2]: 15% | Fibrin % cell toxicity (primary rat microglia [3]): 1% | Fibrin % inhibition [4, 15]: 2% | Quadrant (FIG. 5b) [5, 16]: Q4

N=c1ccn2c(n1)O[C@H]1[C@H](O)[C@@H](CO)O[C@H]12 [Ancitabine Hydrochloride]
LPS % cell toxicity (primary rat microglia [1]; rat): 1% | inhibition at 10 µM [2, 12]: 27% | Fibrin % cell toxicity (primary rat microglia [3]; rat): 1% | inhibition at 10 µM [4, 13]: -4% | Quadrant (FIG. 5b) [5, 9]: Q4

CN/C(=N/CCSCc1nc[nH]c1C)NC#N [Cimetidine]
LPS % cell toxicity (primary rat microglia [1]; rat): 1% | inhibition at 10 µM [2, 14]: 22% | Fibrin % cell toxicity (primary rat microglia [3]; rat): 0% | inhibition at 10 µM [4]: -1% | Quadrant (FIG. 5b) [5]: Q4

CN[C@H](CC(C)C)C(=O)N[C@H]1C(=O)N[C@@H](CC(N)=O)C(=O)N[C@H]2C(=O)N[C@H]3C(=O)N[C@H](C(=O)N[C@H](C(=O)O)c4cc(O)cc(O)c4-c4cc3ccc4O)[C@H](O)c3ccc(c(Cl)c3)Oc3cc2cc(c3O[C@@H]2O[C@H](CO)[C@@H](O)[C@H](O)[C@H]2O[C@H]2C[C@](C)(N)[C@H](O)[C@H](C)O2)Oc2ccc(cc2Cl)[C@H]1O [Vancomycin Hydrochloride]
LPS % cell toxicity (primary rat microglia [1]; rat): 0% | LPS % inhibition ([2]; 10 µM): 9% | Fibrin % cell toxicity (primary rat microglia [3]; rat): 1% | Fibrin % inhibition ([4]; 10 µM): −20% | Quadrant (FIG. 5b) [5]: Q4

O=C(O)CCC(=O)OC[C@@H](NC(=O)C(Cl)Cl)[C@H](O)c1ccc([N+](=O)[O-])cc1 [CHLOR[…]]
LPS % cell toxicity (primary rat microglia [1]; rat): 1% | inhibition at 10 µM [2, 14]: 14% | Fibrin % cell toxicity (primary rat microglia [3]; rat): 2% | inhibition at 10 µM [4]: 24% | Quadrant (FIG. 5b) [5]: Q4

CC[C@H]1OC(=O)[C@H](C)[C@@H](O[C@H]2C[C@@](C)(OC)[C@@H](O)[C@H](C)O2)[C@H](C)[C@@H](O[C@@H]2O[C@H](C)C[C@H](N(C)C)[C@H]2O)[C@](C)(O)C[C@@H](C)CN(C)[C@H](C)[C@@H](O)[C@]1(C)O [Azithromycin]
LPS % cell toxicity (primary rat microglia [1]; rat): 0% | inhibition at 10 µM [2, 12]: 11% | Fibrin % cell toxicity (primary rat microglia [3]; rat): 0% | inhibition at 10 µM [4, 13]: -16% | Quadrant (FIG. 5b) [5, 9]: Q4

O=C1CCc2cc(OCCCCc3nnnn3C3CCCCC3)ccc2N1 [Cilostazol]
LPS % cell toxicity (primary rat microglia [1]; rat): 1% | inhibition at 10 µM ([2]; Rattus norvegicus, Microglia, primary HTS, 10 μM, LPS-stimulated primary microglia; read-out: LPS % inhibition): 17% | Fibrin % cell toxicity (primary rat microglia [3]; rat): 1% | inhibition at 10 µM [4, 11]: 5% | Quadrant (FIG. 5b) ([5]; primary HTS, 10 μM): Q4

C[C@H](CCC(=O)O)[C@H]1CC[C@H]2[C@@H]3[C@H](O)C[C@@H]4C[C@H](O)CC[C@]4(C)[C@H]3C[C@H](O)[C@]12C [Cholic Acid]
LPS % cell toxicity (primary rat microglia [1]; rat): 0% | inhibition at 10 µM [2, 14]: -5% | Fibrin % cell toxicity (primary rat microglia [3]; rat): 0% | inhibition at 10 µM [4]: -31% | Quadrant (FIG. 5b) [5]: Q4

OCCc1ccccc1 [2-Phenyl-Ethanol]
LPS % cell toxicity (primary rat microglia [1]; rat): 0% | inhibition at 10 µM [2, 12]: 15% | Fibrin % cell toxicity (primary rat microglia [3]; rat): 1% | inhibition at 10 µM [4, 13]: -6% | Quadrant (FIG. 5b) [5, 9]: Q4

NNCCc1ccccc1 [Phenelzine]
LPS % cell toxicity (primary rat microglia [1]; rat): 0% | inhibition at 10 µM [2, 10]: -4% | Fibrin % cell toxicity (primary rat microglia [3]; rat): 1% | inhibition at 10 µM [4]: 2% | Quadrant (FIG. 5b) [5]: Q4

Nc1ccc(S(=O)(=O)Nc2nccs2)cc1 [Sulfathiazole]
LPS % cell toxicity (primary rat microglia [1]; rat): 0% | inhibition at 10 µM [2, 6]: 9% | Fibrin % cell toxicity (primary rat microglia [3]; rat): 0% | inhibition at 10 µM [4, 7]: -17% | Quadrant (FIG. 5b) [5, 8]: Q4

Nc1ncn([C@@H]2O[C@H](CO)[C@@H](O)[C@H]2O)c(=O)n1 [5-azacytidine, Azacitidine]
LPS % cell toxicity (primary rat microglia [1]): 0% | LPS % inhibition ([2]; primary microglia HTS, LPS stimulation, compounds at 10 μM): −7% | Fibrin % cell toxicity (primary rat microglia [3]): 1% | Fibrin % inhibition [4, 13]: 9% | Quadrant (FIG. 5b) [5, 9]: Q4
